SMILES strings stand for the structures.

The subject of experiment [1] is BALB/cJ mice. The experiment in a line: Prepulse inhibition of startle. It is filed as in vivo, mouse. How it is done: For chronic fluoxetine studies in BALB/cJ mice, 60 male BALB/cJ mice were tested in the OF for 30 min on days 19 or 20 of chronic fluoxetine treatment. Mice were then pretested and tested in the modified FST on days 21 and 22, respectively. Animals were then allowed to adapt to being singly housed, and were trained for NIH on days 25-27. Home cage and novel cage testing occurred on days 28 and 29, respectively. Mice were then assessed for PPI on days 34 or 35.
Studies of subchronic fluoxetine were conducted using separate groups of 60 male BALB/cJ mice to prevent fluoxetine treatment from exceeding one week. One group was tested in the OF after one day of subchronic fluoxetine treatment. Mice were then pretested after 6 and tested after 7 days of subchronic fluoxetine treatment in the modified FST. A second group of BALB/cJ mice began fluoxetine treatment after being singly housed. They were then tested in the NIH test after 4 (home) and 5 (novel) days of subchronic fluoxetine treatment. A third group was tested for PPI after one or two days of subchronic fluoxetine treatment.
Prepulse Inhibition: Startle experiments were performed in MED-Associates chambers. Nonrestrictive Plexiglas cylinders 5 cm in diameter rested on a Plexiglas platform with a transducer amplifier. The sound-dampening isolation chambers were ventilated, well-lit, and equipped with an acoustic stimulator. Data acquisition was performed using Med-Associates software.
Five different trial types were presented in the test session: a 40-msec broadband 120 dB burst (PULSE ALONE trial); three different PREPULSE+PULSE trials in which 20-msec long 3 dB (pp3), 6 dB (pp6), or 12 dB (pp12) stimuli above a 70 dB background preceded the 120 dB pulse by 100 msec (onset to onset), and a NO STIMULUS trial, in which only the background noise was presented. Trials were presented in a pseudo-random order. A variable interval of 10-20 seconds separated trials.
The test session consisted of 62 test trials. The session began with a 10 min acclimation period, followed by four consecutive blocks of test trials. Blocks one and four consisted of six consecutive PULSE ALONE trials, while blocks two and three contained six PULSE ALONE trials, five pp3+p120 trials, five pp6+p120 trials, five pp12+p120 trials, and four NO STIMULUS trials. Analyses were performed using average values for each trial type.
Prepulse Inhibition: PPI was calculated as the averaged startle magnitude caused by PULSE ALONE trials from blocks two and three, minus the averaged startle magnitude caused by the prepulse-pulse trials, all divided by the averaged PULSE ALONE values from blocks two and three. The resulting value was multiplied by 100 and presented as a percent PPI value. Four-factor ANOVAs with fluoxetine and RU24969 as between subjects factors and prepulse intensity and block as within subjects variables assessed percent PPI levels. Interactions were resolved using post-hoc ANOVAs with adjusted p-values, and/or Newman-Keuls post-hoc tests.

The subject of experiment [2] is animals. The note with it: animals without drug withdrawal or chronic stress; low dose fluoxetine; cited from earlier work.

Consider `COc1ccc2[nH]cc(C3=CCNCC3)c2c1` [RU24969, 5-methoxy-3(1,2,3,6)tetrahydropyridin-4-yl-1H-indole], for which the PPI entry is reported as “disrupted PPI at each prepulse intensity” in experiment [1] (10 mg/kg RU24969 in mice treated subchronically with fluoxetine (1-2 days)) and “disrupted PPI in control mice” in experiment [1] (acute 10 mg/kg RU24969 i.p. in control mice (no fluoxetine), 3, 6, 12 dB prepulse intensities). For the same compound, in experiment [1] (10 mg/kg/day RU24969, chronic fluoxetine study), the “Startle reactivity (blocks two and three)” value is “increased overall”. The “startle reactivity in the second and third blocks” value in experiment [1] (subchronic fluoxetine study (1-2 days), 10 mg/kg RU24969) is recorded as “no effects”.
`CNCCCN1c2ccccc2CCc2ccccc21` [desmethylimipramine]: the “intracranial self-stimulation reward thresholds” value in experiment [2] is recorded as “no effect”.

The values are drawn from US20050186137A1, “Novelty-induced hypophagia-based assays for identifying agents to treat anxiety and depression” (priority 2003, published 2005).
